According to ChEMBL document CHEMBL1781889, “A chemometric study of the 5-HT(1A) receptor affinities presented by arylpiperazine compounds” (Eur J Med Chem, 2008):

What follows are compounds tested against T1, 5-hydroxytryptamine receptor 1A (Homo sapiens, UniProt P08908) (assay: Binding affinity to 5HT1A receptor).
T1 sequence (P08908 whole entry): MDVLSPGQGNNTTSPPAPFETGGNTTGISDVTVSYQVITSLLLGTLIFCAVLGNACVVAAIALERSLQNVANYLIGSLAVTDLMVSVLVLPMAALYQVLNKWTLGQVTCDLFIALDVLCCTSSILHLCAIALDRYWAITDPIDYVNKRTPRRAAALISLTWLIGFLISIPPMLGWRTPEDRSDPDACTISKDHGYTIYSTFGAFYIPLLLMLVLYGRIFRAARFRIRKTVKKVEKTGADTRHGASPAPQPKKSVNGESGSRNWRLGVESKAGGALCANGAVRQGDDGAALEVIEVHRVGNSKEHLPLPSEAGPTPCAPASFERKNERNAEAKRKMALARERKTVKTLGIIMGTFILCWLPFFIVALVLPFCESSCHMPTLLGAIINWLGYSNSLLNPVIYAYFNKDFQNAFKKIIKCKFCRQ

First: Cc1ccc(OC(CCN2CCN(c3ccc(Cl)cc3)CC2)c2ccccc2)cc1 (stereo unspecified)
Second: Clc1ccc(N2CCN(CCC(Oc3ccc4c(c3)OCO4)c3ccccc3)CC2)cc1 (stereo unspecified)
The Ki of the first is 2.6-fold higher: 1450 nM for the first, 550 nM for the second.

Going from `COc1ccccc1N1CCN(CCC(=O)c2ccc3ccccc3c2)CC1` to `COc1ccccc1N1CCN(CCC(O)c2ccc3ccccc3c2)CC1` (stereo unspecified), the Ki rises from 251 nM to 417 nM (1.7-fold).

Going from `Cc1cc(C(=O)CCN2CCN(c3ccccc3O)CC2)c(C)s1` to `COc1ccccc1N1CCN(CCC(=O)c2cc(C)sc2C)CC1`, the Ki falls from 7.59 nM to 5.01 nM (1.5-fold).

`OC(CCN1CCN(c2ccc(Cl)cc2)CC1)c1cccs1` (stereo unspecified) and `O=C(CCN1CCN(c2ccc(Cl)cc2)CC1)c1cccs1` are the same in Ki: 5010 nM for the first, 5010 nM for the second.

Compared with `COc1ccccc1N1CCN(CC/C(=N\O)c2ccsc2)CC1`, `COc1ccccc1N1CCN(CCC(=O)c2ccsc2)CC1` is 2.4-fold higher in Ki: 6.46 nM for the first, 15.8 nM for the second.

Compared with `O=C(CCN1CCN(c2ccccc2O)CC1)c1csc2ccccc12`, `COc1ccccc1N1CCN(CCC(=O)c2csc3ccccc23)CC1` is 2.5-fold lower in Ki: 110 nM for the first, 43.7 nM for the second. The second binds more tightly here.

`O=C(CCN1CCN(c2ccccc2Cl)CC1)c1ccccc1` and `O=C(CCN1CCN(c2ccccc2Cl)CC1)c1ccsc1` are within 1.5-fold of each other in Ki: 182 nM for the first, 200 nM for the second.

Going from `Cc1cc(C(O)CCN2CCN(c3ccccc3O)CC2)c(C)s1` (stereo unspecified) to `COc1ccccc1N1CCN(CCC(O)c2cc(C)sc2C)CC1` (stereo unspecified), the Ki falls from 91.2 nM to 12 nM (7.6-fold).

First: O=C(CCN1CCN(c2ncccn2)CC1)c1ccccc1
Second: O=C(CCN1CCN(c2ccccn2)CC1)c1ccccc1
The Ki of the first is 2.4-fold higher: 120 nM for the first, 50.1 nM for the second.

Going from `COc1ccccc1N1CCN(CCC(=O)c2ccc(-c3ccccc3)cc2)CC1` to `COc1ccccc1N1CCN(CC/C(=N\O)c2ccccc2)CC1`, the Ki falls from 3630 nM to 17.4 nM (210-fold). The second binds more tightly here.

`COc1ccc(N2CCN(CCC(Oc3ccc(C(F)(F)F)cc3)c3ccccc3)CC2)cc1` (stereo unspecified) and `Fc1ccc(N2CCN(CCC(Oc3ccc(C(F)(F)F)cc3)c3ccccc3)CC2)cc1` (stereo unspecified) are the same in Ki: 5010 nM for the first, 5010 nM for the second.

First: COc1ccccc1N1CCN(CCC(Oc2ccc(C(F)(F)F)cc2)c2ccccc2)CC1 (stereo unspecified)
Second: FC(F)(F)c1ccc(OC(CCN2CCN(c3ccccc3Cl)CC2)c2ccccc2)cc1 (stereo unspecified)
The Ki of the first is 11-fold lower: 447 nM for the first, 5010 nM for the second.

`OC(CCN1CCN(c2ccccn2)CC1)c1ccccc1` (stereo unspecified) and `OC(CCN1CCN(c2ccccc2Cl)CC1)c1ccccc1` (stereo unspecified) are within 1.5-fold of each other in Ki: 155 nM for the first, 115 nM for the second.

`OC(CCN1CCN(c2ccc(Cl)cc2)CC1)c1ccc2ccccc2c1` (stereo unspecified) and `O=C(CCN1CCN(c2ccc(Cl)cc2)CC1)c1ccc2ccccc2c1` are the same in Ki: 5010 nM for the first, 5010 nM for the second.

Going from `COc1ccc(C(O)CCN2CCN(c3ccccc3OC)CC2)cc1` (stereo unspecified) to `COc1ccccc1N1CCN(CCC(O)c2ccccc2)CC1` (stereo unspecified), the Ki falls from 324 nM to 47.9 nM (6.8-fold).

First: O=C(CCN1CCN(c2cccc3ccccc23)CC1)c1ccsc1
Second: O=C(CCN1CCN(c2cccc3ccccc23)CC1)c1csc2ccccc12
The Ki of the first is 2.9-fold lower: 34.7 nM for the first, 100 nM for the second.

`COc1cc(Cl)ccc1N1CCN(CCC(O)c2csc3ccccc23)CC1` (stereo unspecified) and `COc1cc(F)ccc1N1CCN(CCC(O)c2csc3ccccc23)CC1` (stereo unspecified) are within 1.5-fold of each other in Ki: 363 nM for the first, 501 nM for the second.

Going from `COc1ccccc1N1CCN(CCC(=O)c2ccc([N+](=O)[O-])s2)CC1` to `COc1ccccc1N1CCN(CCC(=O)c2ccc(C)s2)CC1`, the Ki falls from 339 nM to 17.4 nM (19-fold).

Going from `OC(CCN1CCN(c2ccccc2Cl)CC1)c1ccsc1` (stereo unspecified) to `COc1ccccc1N1CCN(CCC(O)c2ccsc2)CC1` (stereo unspecified), the Ki falls from 200 nM to 50.1 nM (4-fold). The second binds more tightly here.

`COc1cc(F)ccc1N1CCN(CCC(=O)c2csc3ccccc23)CC1` and `COc1cc(Cl)ccc1N1CCN(CCC(=O)c2csc3ccccc23)CC1` are the same in Ki: 501 nM for the first, 501 nM for the second.

Compared with `COc1ccccc1N1CCN(CCC(Oc2ccc(C(F)(F)F)cc2)c2ccsc2)CC1` (stereo unspecified), `COc1ccc(C(CCN2CCN(c3ccccc3OC)CC2)Oc2ccc(C(F)(F)F)cc2)cc1` (stereo unspecified) is 3.9-fold higher in Ki: 257 nM for the first, 1000 nM for the second. The first binds more tightly here.

First: COc1ccc(N2CCN(CCC(=O)c3ccccc3)CC2)cc1
Second: O=C(CCN1CCN(c2ccc(F)cc2)CC1)c1ccccc1
The Ki of the first is 6.3-fold higher: 5010 nM for the first, 794 nM for the second.

`Oc1ccccc1N1CCN(CCC(O)c2csc3ccccc23)CC1` (stereo unspecified) and `COc1ccccc1N1CCN(CCC(O)c2csc3ccccc23)CC1` (stereo unspecified) are within 1.5-fold of each other in Ki: 18.2 nM for the first, 20 nM for the second.

Going from `FC(F)(F)c1ccc(OC(CCN2CCN(c3ncccn3)CC2)c2ccccc2)cc1` (stereo unspecified) to `O=[N+]([O-])c1ccc(N2CCN(CCC(Oc3ccc(C(F)(F)F)cc3)c3ccccc3)CC2)cc1` (stereo unspecified), the Ki rises from 1580 nM to 5010 nM (3.2-fold).

First: COc1ccccc1N1CCN(CCC(O)c2cccs2)CC1 (stereo unspecified)
Second: COc1ccccc1N1CCN(CCC(O)c2ccc(C)s2)CC1 (stereo unspecified)
The Ki of the first is 1.8-fold lower: 19.1 nM for the first, 33.9 nM for the second. The first binds more tightly here.

Compared with `COc1ccccc1N1CCN(CCC(Oc2ccc(C(F)(F)F)cc2)c2ccc(-c3ccccc3)cc2)CC1` (stereo unspecified), `COc1ccc(N2CCN(CCC(O)c3ccc(-c4ccccc4)cc3)CC2)cc1` (stereo unspecified) is 5.9-fold lower in Ki: 5010 nM for the first, 851 nM for the second. The second binds more tightly here.

Going from `O=[N+]([O-])c1ccc(N2CCN(CCC(O)c3ccccc3)CC2)cc1` (stereo unspecified) to `OC(CCN1CCN(c2ccc(Cl)cc2)CC1)c1ccccc1` (stereo unspecified), the Ki falls from 5010 nM to 794 nM (6.3-fold). The second binds more tightly here.

`O=C(CCN1CCN(c2ccc(Cl)cc2)CC1)c1csc2ccccc12` and `OC(CCN1CCN(c2ccc(Cl)cc2)CC1)c1csc2ccccc12` (stereo unspecified) are the same in Ki: 5010 nM for the first, 5010 nM for the second.

Compared with `COc1ccccc1N1CCN(CCC(=O)c2cccs2)CC1`, `Cc1cc(C(=O)CCN2CCN(c3cccc4ccccc34)CC2)c(C)s1` is 10-fold higher in Ki: 10 nM for the first, 100 nM for the second.

First: O=C(CCN1CCN(c2ccc([N+](=O)[O-])cc2)CC1)c1ccccc1
Second: O=C(CCN1CCN(c2ccc(Cl)cc2)CC1)c1ccccc1
The Ki of the first is 6.3-fold higher: 5010 nM for the first, 794 nM for the second.

With `COc1ccc(N2CCN(CCC(O)c3ccccc3)CC2)cc1` (stereo unspecified) the Ki was 5010 nM.
